The kinase profiling compilation of Christmann-Franck et al. (2016)

Tests used:
Assay in all cases: Caliper, Mobility shift assay off-chip
[1] = biological target: JAK2 JH1 JH2 (human) (UniProt O60674)
[2] = biological target: PTK2B (human) (UniProt Q14289)
[3] = biological target: CDC7 (human) (UniProt O00311)
[4] = biological target: HIPK3 (human) (UniProt Q9H422)
[5] = biological target: ALK NPM1 (human) (UniProt P06748+Q9UM73)
[6] = biological target: MAPK12 (human) (UniProt P53778)
[7] = biological target: TNK2 (human) (UniProt Q07912)
[8] = biological target: BTK (human) (UniProt Q06187)
[9] = biological target: CSNK2A1 (human) (UniProt P68400)
[10] = biological target: TNIK (human) (UniProt Q9UKE5)
[11] = biological target: SPHK1 (human) (UniProt Q9NYA1)
[12] = biological target: RPS6KA2 KD1 KD2 (human) (UniProt Q15349)
[13] = biological target: RET (human) (UniProt P07949)
[14] = biological target: CDK1 (human) (UniProt P06493)
[15] = biological target: NIM1 (human) (UniProt Q8IY84)
[16] = biological target: HCK (human) (UniProt P08631)
[17] = biological target: RPS6KA1 KD1 KD2 (human) (UniProt Q15418)
[18] = biological target: CAMK2B (human) (UniProt Q13554)
[19] = biological target: ABL2 (human) (UniProt P42684)
[20] = biological target: AKT1 (human) (UniProt P31749)
[21] = biological target: CDK6 (human) (UniProt Q00534)
[22] = biological target: CDK7 (human) (UniProt P50613)
[23] = biological target: TSSK2 (human) (UniProt Q96PF2)
[24] = biological target: FGFR2 (human) (UniProt P21802)
[25] = biological target: DYRK1B (human) (UniProt Q9Y463)
[26] = biological target: PRKCI (human) (UniProt P41743)
[27] = biological target: FGR (human) (UniProt P09769)
[28] = biological target: CSK (human) (UniProt P41240)
[29] = biological target: PRKD2 (human) (UniProt Q9BZL6)
[30] = biological target: PHKG2 (human) (UniProt P15735)
[31] = biological target: KIT (human) (UniProt P10721)
[32] = biological target: EPHA1 (human) (UniProt P21709)
[33] = biological target: SPHK2 (human) (UniProt Q9NRA0)
[34] = biological target: IKBKE (human) (UniProt Q14164)
Sequence of IKBKE (human) (Q14164 whole entry, looked up): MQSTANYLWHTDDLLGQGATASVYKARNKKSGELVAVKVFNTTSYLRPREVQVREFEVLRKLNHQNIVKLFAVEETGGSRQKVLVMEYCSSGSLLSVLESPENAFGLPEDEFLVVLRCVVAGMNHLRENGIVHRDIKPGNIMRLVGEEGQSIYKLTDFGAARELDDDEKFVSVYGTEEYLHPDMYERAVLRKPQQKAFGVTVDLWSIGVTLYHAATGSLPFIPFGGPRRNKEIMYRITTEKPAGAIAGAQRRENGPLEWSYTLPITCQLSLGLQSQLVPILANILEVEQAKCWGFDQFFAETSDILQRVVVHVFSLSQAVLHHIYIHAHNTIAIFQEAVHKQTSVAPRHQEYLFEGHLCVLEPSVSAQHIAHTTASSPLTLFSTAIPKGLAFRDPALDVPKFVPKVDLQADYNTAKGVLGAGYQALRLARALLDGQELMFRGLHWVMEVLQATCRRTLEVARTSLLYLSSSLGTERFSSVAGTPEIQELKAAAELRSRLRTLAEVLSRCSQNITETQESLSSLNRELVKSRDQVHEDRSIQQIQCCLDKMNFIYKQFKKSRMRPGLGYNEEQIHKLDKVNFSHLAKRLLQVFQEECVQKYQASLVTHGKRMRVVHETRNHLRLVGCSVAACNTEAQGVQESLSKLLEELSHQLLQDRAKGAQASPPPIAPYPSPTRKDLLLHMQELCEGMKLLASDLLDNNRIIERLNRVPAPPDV

Sequence of FGR (human) (P09769 whole entry, looked up): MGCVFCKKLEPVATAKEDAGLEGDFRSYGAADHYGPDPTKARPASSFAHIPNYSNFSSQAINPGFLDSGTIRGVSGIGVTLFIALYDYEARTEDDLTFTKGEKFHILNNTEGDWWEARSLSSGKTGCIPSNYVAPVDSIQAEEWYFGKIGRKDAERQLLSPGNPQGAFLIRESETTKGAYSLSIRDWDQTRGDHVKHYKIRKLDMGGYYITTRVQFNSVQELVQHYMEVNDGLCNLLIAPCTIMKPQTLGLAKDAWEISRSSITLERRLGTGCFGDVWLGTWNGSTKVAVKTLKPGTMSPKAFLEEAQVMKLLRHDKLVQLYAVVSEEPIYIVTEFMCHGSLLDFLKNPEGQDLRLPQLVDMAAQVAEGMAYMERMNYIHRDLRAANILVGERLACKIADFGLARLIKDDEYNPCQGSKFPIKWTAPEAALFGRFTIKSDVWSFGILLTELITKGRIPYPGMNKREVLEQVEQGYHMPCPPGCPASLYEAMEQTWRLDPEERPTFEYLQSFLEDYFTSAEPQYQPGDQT
Sequence of ABL2 (human) (P42684 whole entry, looked up): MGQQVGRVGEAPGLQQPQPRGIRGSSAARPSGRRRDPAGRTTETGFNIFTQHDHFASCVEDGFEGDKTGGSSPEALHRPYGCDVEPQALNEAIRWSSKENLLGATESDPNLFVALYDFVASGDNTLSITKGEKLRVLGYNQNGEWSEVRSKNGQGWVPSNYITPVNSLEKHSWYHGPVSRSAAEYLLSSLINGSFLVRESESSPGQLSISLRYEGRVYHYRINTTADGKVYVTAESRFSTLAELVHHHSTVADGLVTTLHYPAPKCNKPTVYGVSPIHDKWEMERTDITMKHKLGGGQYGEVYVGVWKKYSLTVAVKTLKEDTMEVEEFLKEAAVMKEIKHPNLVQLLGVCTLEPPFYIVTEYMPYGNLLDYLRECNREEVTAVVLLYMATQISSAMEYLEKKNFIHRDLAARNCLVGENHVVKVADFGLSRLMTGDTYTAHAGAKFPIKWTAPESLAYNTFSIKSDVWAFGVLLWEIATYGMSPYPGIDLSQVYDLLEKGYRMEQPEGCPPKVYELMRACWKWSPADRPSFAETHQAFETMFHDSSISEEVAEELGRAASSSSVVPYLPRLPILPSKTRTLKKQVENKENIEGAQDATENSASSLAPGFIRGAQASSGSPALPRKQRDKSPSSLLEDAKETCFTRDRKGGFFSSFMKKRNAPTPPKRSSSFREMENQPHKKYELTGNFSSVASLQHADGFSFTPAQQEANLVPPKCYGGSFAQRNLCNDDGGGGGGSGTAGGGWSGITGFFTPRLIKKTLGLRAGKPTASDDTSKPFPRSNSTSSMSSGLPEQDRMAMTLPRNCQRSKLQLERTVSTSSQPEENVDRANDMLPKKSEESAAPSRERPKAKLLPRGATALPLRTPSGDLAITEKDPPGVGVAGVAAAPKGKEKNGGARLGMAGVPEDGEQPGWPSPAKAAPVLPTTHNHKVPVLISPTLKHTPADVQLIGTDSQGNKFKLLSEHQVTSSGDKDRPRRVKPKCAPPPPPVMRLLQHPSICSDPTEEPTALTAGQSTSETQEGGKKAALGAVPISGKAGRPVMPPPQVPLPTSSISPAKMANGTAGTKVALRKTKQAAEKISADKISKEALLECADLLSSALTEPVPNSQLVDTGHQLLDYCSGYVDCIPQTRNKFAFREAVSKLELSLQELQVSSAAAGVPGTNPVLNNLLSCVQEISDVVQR
Sequence of PRKCI (human) (P41743 whole entry, looked up): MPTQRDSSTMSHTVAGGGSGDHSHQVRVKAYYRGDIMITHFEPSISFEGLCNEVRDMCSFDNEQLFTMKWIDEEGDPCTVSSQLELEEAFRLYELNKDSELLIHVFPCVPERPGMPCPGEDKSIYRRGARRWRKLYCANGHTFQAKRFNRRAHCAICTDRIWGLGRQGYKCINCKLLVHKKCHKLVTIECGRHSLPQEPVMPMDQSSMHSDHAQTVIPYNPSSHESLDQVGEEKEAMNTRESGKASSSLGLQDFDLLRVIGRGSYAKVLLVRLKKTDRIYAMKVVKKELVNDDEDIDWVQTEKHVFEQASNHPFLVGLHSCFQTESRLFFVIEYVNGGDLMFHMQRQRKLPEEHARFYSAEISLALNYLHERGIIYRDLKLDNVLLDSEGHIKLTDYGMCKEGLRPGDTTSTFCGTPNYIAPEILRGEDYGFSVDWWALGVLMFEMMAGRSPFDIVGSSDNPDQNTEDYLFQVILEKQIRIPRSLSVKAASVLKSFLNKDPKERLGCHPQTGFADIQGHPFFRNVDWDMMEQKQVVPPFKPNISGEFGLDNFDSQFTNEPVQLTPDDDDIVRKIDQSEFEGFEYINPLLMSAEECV
Sequence of RET (human) (P07949 whole entry, looked up): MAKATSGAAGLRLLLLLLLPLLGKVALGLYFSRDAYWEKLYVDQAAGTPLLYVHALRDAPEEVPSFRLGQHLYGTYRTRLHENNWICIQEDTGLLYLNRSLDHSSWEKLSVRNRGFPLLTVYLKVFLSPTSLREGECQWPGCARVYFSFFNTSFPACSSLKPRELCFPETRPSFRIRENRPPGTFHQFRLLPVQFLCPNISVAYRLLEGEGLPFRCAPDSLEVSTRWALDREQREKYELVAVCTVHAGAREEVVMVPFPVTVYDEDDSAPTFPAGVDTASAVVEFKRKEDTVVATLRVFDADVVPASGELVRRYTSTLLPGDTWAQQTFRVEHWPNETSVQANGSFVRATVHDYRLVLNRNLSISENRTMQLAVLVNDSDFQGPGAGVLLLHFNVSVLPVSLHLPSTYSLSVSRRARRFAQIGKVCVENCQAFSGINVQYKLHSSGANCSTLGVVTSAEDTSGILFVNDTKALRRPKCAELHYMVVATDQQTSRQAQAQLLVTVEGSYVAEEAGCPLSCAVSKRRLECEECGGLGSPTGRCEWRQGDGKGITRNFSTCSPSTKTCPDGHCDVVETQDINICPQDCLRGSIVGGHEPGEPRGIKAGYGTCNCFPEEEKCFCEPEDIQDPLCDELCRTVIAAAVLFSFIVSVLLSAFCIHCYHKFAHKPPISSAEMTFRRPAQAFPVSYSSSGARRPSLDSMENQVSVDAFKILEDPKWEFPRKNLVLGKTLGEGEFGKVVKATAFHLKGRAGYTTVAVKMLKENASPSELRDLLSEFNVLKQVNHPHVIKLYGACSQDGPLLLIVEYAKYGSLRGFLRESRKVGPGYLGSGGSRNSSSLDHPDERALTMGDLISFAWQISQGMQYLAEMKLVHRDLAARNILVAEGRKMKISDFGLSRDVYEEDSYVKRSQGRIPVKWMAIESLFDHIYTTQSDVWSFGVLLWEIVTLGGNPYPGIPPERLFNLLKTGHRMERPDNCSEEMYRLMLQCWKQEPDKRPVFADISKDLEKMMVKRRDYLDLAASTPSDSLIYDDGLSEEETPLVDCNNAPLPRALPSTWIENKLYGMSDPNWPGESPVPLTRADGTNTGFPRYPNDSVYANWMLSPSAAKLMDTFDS
Sequence of MAPK12 (human) (P53778 whole entry, looked up): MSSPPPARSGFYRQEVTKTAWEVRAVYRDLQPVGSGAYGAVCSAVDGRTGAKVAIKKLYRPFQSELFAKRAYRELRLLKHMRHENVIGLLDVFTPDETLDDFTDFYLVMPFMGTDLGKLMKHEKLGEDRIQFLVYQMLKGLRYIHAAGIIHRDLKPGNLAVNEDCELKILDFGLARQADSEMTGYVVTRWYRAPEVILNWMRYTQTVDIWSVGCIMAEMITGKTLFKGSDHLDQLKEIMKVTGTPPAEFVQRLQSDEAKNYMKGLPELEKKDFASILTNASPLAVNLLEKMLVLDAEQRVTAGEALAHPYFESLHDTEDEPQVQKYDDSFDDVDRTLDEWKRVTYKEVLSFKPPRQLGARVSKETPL
Sequence of CDK6 (human) (Q00534 whole entry, looked up): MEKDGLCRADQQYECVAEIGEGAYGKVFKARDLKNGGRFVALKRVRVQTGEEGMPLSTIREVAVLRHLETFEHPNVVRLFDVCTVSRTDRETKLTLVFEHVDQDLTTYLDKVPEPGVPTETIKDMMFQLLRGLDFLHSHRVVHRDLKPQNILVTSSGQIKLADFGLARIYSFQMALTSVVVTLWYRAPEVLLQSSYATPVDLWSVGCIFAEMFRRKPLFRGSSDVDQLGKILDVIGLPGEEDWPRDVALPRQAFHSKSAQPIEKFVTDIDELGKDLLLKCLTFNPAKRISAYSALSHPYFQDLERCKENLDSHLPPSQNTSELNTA

Q: Which results are given for Cc1ccc(Nc2nccc(N(C)c3ccc4c(C)n(C)nc4c3)n2)cc1S(N)(=O)=O?
A: inhibition ([1]; compound 0.02 µM): 4.8%; inhibition ([1]; compound 0.2 µM): 11.4%; inhibition ([2]; compound 0.02 µM): -0.4%; inhibition ([2]; compound 0.2 µM): 9.7%; inhibition ([3]; compound 0.02 µM): -1.5%; inhibition ([3]; compound 0.2 µM): -3.3%; inhibition ([4]; compound 0.02 µM): 2.3%; inhibition ([4]; compound 0.2 µM): 2.6%; inhibition ([5]; compound 0.02 µM): 2.8%; inhibition ([5]; compound 0.2 µM): 2.1%; inhibition ([6]; compound 0.02 µM): -6.3%; inhibition ([6]; compound 0.2 µM): -2.7%; inhibition ([7]; compound 0.02 µM): -5.7%; inhibition ([7]; compound 0.2 µM): -3.6%; inhibition ([8]; compound 0.02 µM): 2.4%; inhibition ([8]; compound 0.2 µM): 3.1%; inhibition ([9]; compound 0.02 µM): -3%; inhibition ([9]; compound 0.2 µM): -2.4%; inhibition ([10]; compound 0.02 µM): 7.3%; inhibition ([10]; compound 0.2 µM): 46.6%; inhibition ([11]; compound 0.02 µM): -4.8%; inhibition ([11]; compound 0.2 µM): -5.9%; inhibition ([12]; compound 0.02 µM): 6.3%; inhibition ([12]; compound 0.2 µM): 8.4%; inhibition ([13]; compound 0.02 µM): 32.3%; inhibition ([13]; compound 0.2 µM): 82.1%; inhibition ([14]; compound 0.02 µM): -2.9%; inhibition ([14]; compound 0.2 µM): -1.5%; inhibition ([15]; compound 0.02 µM): -11.7%; inhibition ([15]; compound 0.2 µM): 10.4%; inhibition ([16]; compound 0.02 µM): 2.6%; inhibition ([16]; compound 0.2 µM): 25.1%; inhibition ([17]; compound 0.02 µM): 0.5%; inhibition ([17]; compound 0.2 µM): 5.4%; inhibition ([18]; compound 0.02 µM): -4.2%; inhibition ([18]; compound 0.2 µM): -5.5%; inhibition ([19]; compound 0.02 µM): 2.6%; inhibition ([19]; compound 0.2 µM): 27.6%; inhibition ([20]; compound 0.02 µM): -2.3%; inhibition ([20]; compound 0.2 µM): -2.2%; inhibition ([21]; compound 0.02 µM): 6.2%; inhibition ([21]; compound 0.2 µM): 8.2%; inhibition ([22]; compound 0.02 µM): -1.6%; inhibition ([22]; compound 0.2 µM): -2.2%; inhibition ([23]; compound 0.02 µM): -4.3%; inhibition ([23]; compound 0.2 µM): -2.4%; inhibition ([24]; compound 0.02 µM): 29%; inhibition ([24]; compound 0.2 µM): 82.6%; inhibition ([25]; compound 0.02 µM): -4.3%; inhibition ([25]; compound 0.2 µM): 7.4%; inhibition ([26]; compound 0.02 µM): 3.4%; inhibition ([26]; compound 0.2 µM): 2.1%; inhibition ([27]; compound 0.02 µM): 18.8%; inhibition ([27]; compound 0.2 µM): 54.2%; inhibition ([28]; compound 0.02 µM): -4.8%; inhibition ([28]; compound 0.2 µM): -0.7%; inhibition ([29]; compound 0.02 µM): -2.2%; inhibition ([29]; compound 0.2 µM): -1.5%; inhibition ([30]; compound 0.02 µM): -3.5%; inhibition ([30]; compound 0.2 µM): -1.8%; inhibition ([31]; compound 0.2 µM): 83%; inhibition ([32]; compound 0.02 µM): -1.3%; inhibition ([32]; compound 0.2 µM): 15.3%; inhibition ([33]; compound 0.02 µM): 4.3%; inhibition ([33]; compound 0.2 µM): -6.2%; inhibition ([34]; compound 0.02 µM): -3.4%; inhibition ([34]; compound 0.2 µM): -7.1%

Q: For CNC(=O)c1cc(Oc2ccc(NC(=O)Nc3ccc(Cl)c(C(F)(F)F)c3)cc2)ccn1, which inhibition ([1]; compound 0.02 µM) is on record?
A: -3.6%

Q: What about the inhibition ([1]; compound 0.2 µM) of the same compound?
A: 8.1%

Q: And the inhibition ([2]; compound 0.02 µM)?
A: -2.8%

Q: What about the inhibition ([2]; compound 0.2 µM) of the same compound?
A: -2.7%

Q: What about the inhibition ([3]; compound 0.02 µM) of the same compound?
A: -4.3%

Q: And the inhibition ([3]; compound 0.2 µM)?
A: -4.2%

Q: What about the inhibition ([4]; compound 0.02 µM) of the same compound?
A: 3.2%

Q: What about the inhibition ([4]; compound 0.2 µM) of the same compound?
A: 28%

Q: What about the inhibition ([5]; compound 0.02 µM) of the same compound?
A: -6%

Q: And the inhibition ([5]; compound 0.2 µM)?
A: 5%

Q: What about the inhibition ([6]; compound 0.02 µM) of the same compound?
A: -5.9%

Q: What about the inhibition ([6]; compound 0.2 µM) of the same compound?
A: -0.3%

Q: And the inhibition ([7]; compound 0.02 µM)?
A: -5%

Q: What about the inhibition ([7]; compound 0.2 µM) of the same compound?
A: -3.2%

Q: And the inhibition ([8]; compound 0.02 µM)?
A: -0.7%

Q: What about the inhibition ([8]; compound 0.2 µM) of the same compound?
A: 14.6%

Q: What about the inhibition ([9]; compound 0.02 µM) of the same compound?
A: -2%

Q: And the inhibition ([9]; compound 0.2 µM)?
A: 0.3%

Q: What about the inhibition ([10]; compound 0.02 µM) of the same compound?
A: -6.2%

Q: And the inhibition ([10]; compound 0.2 µM)?
A: 0.8%

Q: What about the inhibition ([11]; compound 0.02 µM) of the same compound?
A: -3.1%

Q: What about the inhibition ([11]; compound 0.2 µM) of the same compound?
A: 3.2%

Q: And the inhibition ([12]; compound 0.02 µM)?
A: -4.3%

Q: And the inhibition ([12]; compound 0.2 µM)?
A: -0.2%

Q: And the inhibition ([13]; compound 0.02 µM)?
A: 79.4%

Q: And the inhibition ([13]; compound 0.2 µM)?
A: 101%

Q: What about the inhibition ([14]; compound 0.02 µM) of the same compound?
A: -2%

Q: And the inhibition ([14]; compound 0.2 µM)?
A: -2%

Q: And the inhibition ([15]; compound 0.02 µM)?
A: -3.6%

Q: And the inhibition ([15]; compound 0.2 µM)?
A: 6.4%

Q: What about the inhibition ([16]; compound 0.02 µM) of the same compound?
A: -11.6%

Q: What about the inhibition ([16]; compound 0.2 µM) of the same compound?
A: 5.2%

Q: What about the inhibition ([17]; compound 0.02 µM) of the same compound?
A: -3.6%

Q: And the inhibition ([17]; compound 0.2 µM)?
A: 3.1%

Q: What about the inhibition ([18]; compound 0.02 µM) of the same compound?
A: -6.4%

Q: And the inhibition ([18]; compound 0.2 µM)?
A: -7%

Q: What about the inhibition ([19]; compound 0.02 µM) of the same compound?
A: -2.8%

Q: What about the inhibition ([19]; compound 0.2 µM) of the same compound?
A: 3.1%

Q: What about the inhibition ([20]; compound 0.02 µM) of the same compound?
A: -2.8%

Q: What about the inhibition ([20]; compound 0.2 µM) of the same compound?
A: -1.4%

Q: What about the inhibition ([21]; compound 0.02 µM) of the same compound?
A: 0.1%

Q: And the inhibition ([21]; compound 0.2 µM)?
A: 2%

Q: What about the inhibition ([22]; compound 0.02 µM) of the same compound?
A: -5.5%

Q: What about the inhibition ([22]; compound 0.2 µM) of the same compound?
A: -7%

Q: What about the inhibition ([23]; compound 0.02 µM) of the same compound?
A: -3.9%

Q: What about the inhibition ([23]; compound 0.2 µM) of the same compound?
A: -2.4%

Q: And the inhibition ([25]; compound 0.02 µM)?
A: -6.7%

Q: What about the inhibition ([25]; compound 0.2 µM) of the same compound?
A: 0.6%

Q: And the inhibition ([26]; compound 0.02 µM)?
A: -0.2%

Q: What about the inhibition ([26]; compound 0.2 µM) of the same compound?
A: 5.7%

Q: And the inhibition ([27]; compound 0.02 µM)?
A: 1.6%

Q: What about the inhibition ([27]; compound 0.2 µM) of the same compound?
A: 14.2%

Q: What about the inhibition ([28]; compound 0.02 µM) of the same compound?
A: -9.3%

Q: And the inhibition ([28]; compound 0.2 µM)?
A: 2.6%

Q: And the inhibition ([29]; compound 0.02 µM)?
A: -1.2%

Q: What about the inhibition ([29]; compound 0.2 µM) of the same compound?
A: 0%

Q: And the inhibition ([30]; compound 0.02 µM)?
A: -3.1%

Q: What about the inhibition ([30]; compound 0.2 µM) of the same compound?
A: -2.3%

Q: What about the inhibition ([31]; compound 0.02 µM) of the same compound?
A: 32.9%

Q: What about the inhibition ([31]; compound 0.2 µM) of the same compound?
A: 89.8%

Q: And the inhibition ([32]; compound 0.02 µM)?
A: -1.2%

Q: What about the inhibition ([32]; compound 0.2 µM) of the same compound?
A: 8%

Q: What about the inhibition ([33]; compound 0.02 µM) of the same compound?
A: -6%

Q: What about the inhibition ([33]; compound 0.2 µM) of the same compound?
A: 7.1%

Q: What about the inhibition ([34]; compound 0.02 µM) of the same compound?
A: -4.5%

Q: And the inhibition ([34]; compound 0.2 µM)?
A: -4.7%
